Data as given in PMC13586173, “Synthetic cannabinoid receptor agonists inhibit the cardiac voltage-gated potassium channel hERG” (Acta Pharmacologica Sinica, 2026).
Values joined by “and” are separate entries in the source; they are usually repeats but may differ in a detail not shown here. Equal values may be shown once. Read-outs that look alike come from different tables or passages of the source.

Key:
hERG (KV11.1) = hERG (KV11.1) (Homo sapiens, UniProt Q12809); test: Automated planar patch-clamp (APC, QPatch II 48), voltage-ladder protocol, CHO cells stably expressing human hERG; details: for hERG channel Efficacy (max reduction in Gmax) Gmin / hERG channel Efficacy (max reduction in Gmax) Gmin, marked *: 1 = no reduction of Gmax; for hERG channel Efficacy (max reduction in Gmax) Gmin: 0 = complete reduction; for hERG channel Efficacy (max reduction in Gmax) Gmin, marked *: * Greatest efficacy achieved with a concentration between 10 and 30 µM (no fit); for effect on Gmax of hERG (in words): APC concentration-response, 1.11 to 30 µM
Chain of hERG (KV11.1) (Q12809 whole entry): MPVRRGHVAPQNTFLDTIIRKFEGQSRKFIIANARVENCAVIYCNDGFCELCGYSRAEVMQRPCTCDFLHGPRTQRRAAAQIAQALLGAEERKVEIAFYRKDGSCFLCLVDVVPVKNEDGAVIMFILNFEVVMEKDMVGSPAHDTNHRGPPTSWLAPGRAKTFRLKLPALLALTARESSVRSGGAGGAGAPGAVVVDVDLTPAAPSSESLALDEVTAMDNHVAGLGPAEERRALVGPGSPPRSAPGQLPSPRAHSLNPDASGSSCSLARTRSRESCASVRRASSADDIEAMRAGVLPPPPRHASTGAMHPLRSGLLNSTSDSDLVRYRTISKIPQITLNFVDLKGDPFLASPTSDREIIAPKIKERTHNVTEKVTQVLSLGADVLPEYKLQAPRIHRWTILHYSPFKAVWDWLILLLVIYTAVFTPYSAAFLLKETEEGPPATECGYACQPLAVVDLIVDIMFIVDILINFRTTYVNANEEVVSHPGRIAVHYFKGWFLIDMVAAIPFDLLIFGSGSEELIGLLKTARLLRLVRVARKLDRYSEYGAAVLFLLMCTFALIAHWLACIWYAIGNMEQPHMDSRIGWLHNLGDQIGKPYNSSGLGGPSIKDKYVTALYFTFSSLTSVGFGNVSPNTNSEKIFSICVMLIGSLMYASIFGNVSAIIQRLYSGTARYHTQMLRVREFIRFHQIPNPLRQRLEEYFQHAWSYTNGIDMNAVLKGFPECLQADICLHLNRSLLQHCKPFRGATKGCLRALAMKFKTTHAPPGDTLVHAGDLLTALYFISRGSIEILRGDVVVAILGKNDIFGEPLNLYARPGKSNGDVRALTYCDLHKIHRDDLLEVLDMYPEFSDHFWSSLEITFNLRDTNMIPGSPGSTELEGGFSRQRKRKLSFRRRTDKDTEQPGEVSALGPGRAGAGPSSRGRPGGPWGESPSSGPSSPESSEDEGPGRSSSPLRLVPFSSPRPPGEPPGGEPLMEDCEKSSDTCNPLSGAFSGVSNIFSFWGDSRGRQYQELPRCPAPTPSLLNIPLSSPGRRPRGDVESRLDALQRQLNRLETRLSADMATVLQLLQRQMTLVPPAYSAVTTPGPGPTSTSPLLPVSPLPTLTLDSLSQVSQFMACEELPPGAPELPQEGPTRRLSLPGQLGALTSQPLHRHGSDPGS
Source text: To assess the effect of a large set of SCRAs on hERG (see SI Table I and SI Fig. S1 for a list of the 36 included SCRAs and corresponding structures), we used the automated planar patch-clamp (APC) technique on mammalian Chinese hamster ovary (CHO) cells stably expressing human hERG. […] We employed a voltage-ladder protocol to obtain information on SCRA effects on the channel’s voltage dependence of activation (V50) and maximal conductance (Gmax) (both determined from Boltzmann fits of the instantaneous tail currents; see Methods for details).
Stably expressing cell lines “CHO-hERG DUO” (here referred to as hERG; gene: KCNH2) and “CHO-KVLQT1/mink” (here referred to as KV7.1/KCNE1; gene: KCNQ1/KCNE1), (B’SYS GmBH, Witterswil, Switzerland) were used to study whole-cell K^+ currents on a QPatch II 48 APC system (Sophion Bioscience A/S, Ballerup, Denmark). Cell culture and passaging were performed in accordance with standard operating procedures. Cells were harvested in serum-free medium with Detachin^TM (Genlantis, CA, USA) immediately prior to experiments. For MPC on transient cell lines, CHO-K1 CCL-61 cells (ATCC, Manassas, VA, USA) were cultured in Ham’s F-12 medium supplemented with 10% fetal bovine serum (FBS) and 100 U/mL penicillin–100 µg/mL streptomycin (Gibco, Thermo Fisher Scientific, Waltham, MA, USA). Transfection was carried out using JetOPTIMUS® reagent (Polyplus, Strasbourg, France) according to the manufacturer’s protocol. Briefly, 80,000 cells were seeded per well in a 12-well plate and transfected with 300 ng of pcDNA3-GFP plasmid, 700 ng of pcDNA3-hERG plasmid with either the wild-type or mutant channels (S624A, S649A, or Y652A), and […] of JetOPTIMUS. After 8 h, cells were detached and reseeded at a density of 30,000 cells per well onto several poly-D-lysine-coated glass coverslips placed in a 12-well plate. For the CB1 receptor activity assay, the AequoScreen® recombinant Chinese hamster ovary (CHO) K1 cell line, stably expressing the human CB1 receptor (ES-110-A), was used (Revvity, Sollentuna, Sweden).
Automated patch-clamp recordings were performed at 22 °C. Freshly harvested cell suspensions (2–3 million cells/mL) were prepared for experiments by the QPatch II 48 automated cell preparation unit. Cells were centrifuged for 150 s at 150 × g and washed twice with the extracellular recording solution. Cells were handled by the integrated pipetting robot and added to the 48 experiment sites on the planar patch-clamp consumable QPlate. Each experiment site contained an individual pair of recording electrodes and a silicon/glass biochip embedded in the flow channels. Single-cell patch recordings (n = 1 is defined as one single-cell patch) and population patch recordings (up to 10 cells per well, n = 1 is defined as one population patch) were performed for hERG and for KV7.1/KCNE1, respectively. Cells were applied, positioned and sealed to the patch holes by a mild suction protocol; whole-cell access was then achieved by a stronger suction pulse.
The intracellular solution contained (in mM): 100 KCl, 4.3 CaCl2, 1.4 MgCl2, 25/10 KOH/EGTA, 24 KF, 10 HEPES, and 4 Mg-ATP (hERG) or 4 Na-ATP (KV7.1/KCNE1). […] The compounds were pre-diluted in DMSO, and the final concentration of DMSO (0.3%) was equal in all recording solutions to control for vehicle effects. The compounds made no contact with plastics following dilution in extracellular solution.
An overview of experimental conditions is provided in SI Table VII, Square voltage pulses in a voltage ladder protocol were used to study current/voltage (I(V)) relationships. Each voltage protocol was first run three times in the presence of vehicle (extracellular solution supplemented with 0.3% DMSO), the 3rd serving as the baseline. Voltage protocols were repeated in the presence of 4 cumulatively rising concentrations of test compound, followed by application of vehicle for recovery.

KV7.1/KCNE1 = KV7.1/KCNE1 (Homo sapiens, UniProt P51787); test: Automated patch-clamp (APC, population patch), CHO cells stably expressing human KV7.1/KCNE1; assay type: cell-based; details: for KV7.1/KCNE1 channel Efficacy (max reduction in Gmax) Gmin: 1 = no reduction of Gmax, 0 = complete reduction; for KV7.1/KCNE1 channel Efficacy (max reduction in Gmax) Gmin, marked *: * Greatest efficacy achieved with a concentration between 10 and 30 µM (no fit)
Chain of KV7.1/KCNE1 (P51787 whole entry): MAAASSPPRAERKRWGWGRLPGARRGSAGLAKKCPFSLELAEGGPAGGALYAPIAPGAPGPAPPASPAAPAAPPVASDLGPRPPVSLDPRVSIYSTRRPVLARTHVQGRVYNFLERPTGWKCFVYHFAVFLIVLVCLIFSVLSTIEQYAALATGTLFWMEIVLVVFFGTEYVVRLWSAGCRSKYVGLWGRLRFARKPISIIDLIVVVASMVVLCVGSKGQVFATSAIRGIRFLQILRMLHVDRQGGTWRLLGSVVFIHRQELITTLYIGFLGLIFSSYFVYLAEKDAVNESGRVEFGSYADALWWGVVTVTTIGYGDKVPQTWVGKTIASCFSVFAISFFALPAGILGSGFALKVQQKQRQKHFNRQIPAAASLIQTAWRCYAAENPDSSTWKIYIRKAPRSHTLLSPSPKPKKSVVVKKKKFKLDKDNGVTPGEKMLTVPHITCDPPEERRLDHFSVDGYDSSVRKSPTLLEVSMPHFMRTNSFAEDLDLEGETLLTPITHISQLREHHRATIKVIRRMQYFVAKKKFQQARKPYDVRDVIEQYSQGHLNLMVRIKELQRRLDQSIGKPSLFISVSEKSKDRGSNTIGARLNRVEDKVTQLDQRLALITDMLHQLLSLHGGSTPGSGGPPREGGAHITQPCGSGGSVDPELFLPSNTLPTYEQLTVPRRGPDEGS
Experimental: Both hERG and KV7.1/KCNE1 contribute to cardiomyocyte repolarization (Fig. 1g). Inhibition of KV7.1/KCNE1 alone can be proarrhythmic. Moreover, under conditions with impaired hERG function, upregulation of KV7.1/KCNE1 has been proposed to partially compensate for the loss of hERG [38, 39]. […] To assess if SCRAs also affect KV7.1/KCNE1, we used mammalian CHO cells stably expressing human KV7.1/KCNE1. […] At 10 µM, 7 of the SCRAs caused a significant positive shift in V50 (Fig. 5e), with the largest shift induced by MDMB-[…] (ΔV50 = +10.3 ± 1.6 mV).
Automated patch-clamp recordings were performed at 22 °C.
For the KV7.1/KCNE1 voltage ladder protocol (SI Table VII) the solutions were present for 60 s before recording started. KV7.1/KCNE1 cells were kept at a holding voltage of −90 mV, with brief hyperpolarizing steps to −100 mV for 540 ms (to calculate ohmic leakage). […] The time between compound application and the first voltage protocol was 60 s. Time between sweeps was 15 s. The voltage ladder protocol was executed every 220 s.
For Gmax (rel.), N was set to –1. For ΔV50, N was set to 1.

human CB1 receptor = molecular target: T1, human CB1 receptor (Homo sapiens, UniProt P21554); test: AequoScreen intracellular calcium release assay, CHO-K1 cells stably expressing CB1; assay type: cell-based; details: for CB1 receptor Efficacy Emax: normalized to maximum of JWH-018
T1 construct: host or cells: CHO-K1 stably expressing CB1, apoaequorin and Gα16
T1 sequence (P21554 whole entry): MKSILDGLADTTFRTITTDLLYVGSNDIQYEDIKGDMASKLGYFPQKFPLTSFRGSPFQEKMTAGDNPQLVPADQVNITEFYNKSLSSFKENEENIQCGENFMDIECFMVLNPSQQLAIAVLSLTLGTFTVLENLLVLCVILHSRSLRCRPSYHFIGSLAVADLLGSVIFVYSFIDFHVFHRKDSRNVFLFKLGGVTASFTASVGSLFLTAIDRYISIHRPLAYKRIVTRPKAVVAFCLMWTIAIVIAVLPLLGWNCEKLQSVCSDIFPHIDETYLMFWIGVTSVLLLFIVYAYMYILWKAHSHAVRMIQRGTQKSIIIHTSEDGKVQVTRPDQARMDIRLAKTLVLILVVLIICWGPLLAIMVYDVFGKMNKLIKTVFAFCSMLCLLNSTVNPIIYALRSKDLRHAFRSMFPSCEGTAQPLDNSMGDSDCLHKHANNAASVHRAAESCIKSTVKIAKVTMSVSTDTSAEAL

[1] = read-out: hERG channel Potency IC50 (Gmax reduction), APC, 22 °C, best fit
[2] = APC, best fit, read-out: KV7.1/KCNE1 channel Potency IC50 (Gmax reduction)
[3] = normalized to median EC50 of JWH-018, n ≥ 3 (JWH-030 n = 2), read-out: CB1 receptor Potency EC50
[4] = CB1 receptor Potency EC50, normalized to median EC50 of JWH-018, n ≥ 3 (JWH-030 n = 2)
[5] = experimentally observed effect of 10 µM, used in ORd simulation

| SMILES | hERG channel Efficacy (max reduction in Gmax) Gmin (hERG (KV11.1); best fit, APC, 22 °C) | IC50 (hERG (KV11.1); [1]) | CB1 receptor Efficacy Emax (human CB1 receptor; n ≥ 3 (JWH-030 n = 2)) | EC50 (human CB1 receptor; [3]) | KV7.1/KCNE1 channel Efficacy (max reduction in Gmax) Gmin, marked * (KV7.1/KCNE1) | EC50 (human CB1 receptor; [4]) | IC50 (hERG (KV11.1)) | further results |
| --- | --- | --- | --- | --- | --- | --- | --- | --- |
| CC(C)[C@H](NC(=O)c1nn(Cc2ccc(F)cc2)c2ccccc12)C(N)=O [AB-FUBINACA] | 0.00 | 30400 nM | 108 % JWH-018 | 8.94 nM |  |  |  | IC50 (KV7.1/KCNE1; [2]): 40800 nM; KV7.1/KCNE1 channel Efficacy (max reduction in Gmax) Gmin (KV7.1/KCNE1; best fit): 0.15 |
| CCCCCN1C(=O)/C(=N\NC(=O)c2ccccc2)c2ccccc21 [BZO-POXIZID] |  |  | 108 % JWH-018 |  | 0.83 | 349 nM |  | hERG channel Efficacy (max reduction in Gmax) Gmin, marked * (hERG (KV11.1)): 0.79; effect on Gmax of hERG (in words) (hERG (KV11.1)): non-inhibitor |
| CC(C)(NC(=O)c1nn(CCCCCF)c2ccccc12)c1ccccc1 [5F-Cumyl-PINACA] | 0.00 |  | 112 % JWH-018 |  |  | 2.23 nM and 2.2 nM | 15500 nM | IC50 (KV7.1/KCNE1): 43500 nM; effect on KV7.1/KCNE1 (in words) (KV7.1/KCNE1; APC): well-defined concentration–response relationships for both effects; KV7.1/KCNE1 channel Efficacy (max reduction in Gmax) Gmin (KV7.1/KCNE1; best fit): 0.13 |
| CCCCCn1nc(C(=O)NC23CC4CC(CC(C4)C2)C3)c2ccccc21 [APINACA] |  |  | 108 % JWH-018 | 30.4 nM | 0.88 |  |  | hERG channel Efficacy (max reduction in Gmax) Gmin, marked * (hERG (KV11.1)): 0.90; effect on Gmax of hERG (in words) (hERG (KV11.1)): non-inhibitor |
| CCCCn1nc(C(=O)NC(C(N)=O)C(C)(C)C)c2cc(Br)ccc21 (centres unmarked) [ADB-5'Br-BUTINACA] | 0.36 | 40100 nM | 110 % JWH-018 | 18 nM | 0.80 |  |  |  |
| N#CCCCCn1nc(C(=O)NCc2ccccc2)c2ccccc21 [Benzyl-4CN-BUTINACA] | 0.00 | 17300 nM | 109 % JWH-018 | 408 nM | 0.73 |  |  |  |
| COC(=O)[C@@H](NC(=O)c1n[nH]c2ccc(Br)cc12)C(C)(C)C [MDMB-5'Br-INACA] | 0.57 | 25300 nM | 110 % JWH-018 | 849 nM | 0.74 |  |  |  |
| O=C(c1cccc2ccccc12)c1cn(CCCCCF)c2ccccc12 [AM-2201] | 0.38 | 1300 nM | 99.7 % JWH-018 | 25.8 nM | 0.92 |  |  | Gmax effect on hERG versus KV7.1/KCNE1 (in words) (KV7.1/KCNE1; 10 µM, both channels by APC): effects only on hERG |
| CCCCCn1cc(C(=O)c2cccc3ccccc23)c2ccccc21 [JWH-018] | 0.57 |  | 100 % JWH-018 |  | 1.01 | 35 nM | 17300 nM | EC50 (human CB1 receptor; median CB1 EC50 value, median from 139 independent experiments run over many years): 35 nM; EC50 (human CB1 receptor; variability of CB1 EC50 over time, range over 139 independent experiments): 13.7 to 51.9 nM |
| COC(=O)C(NC(=O)c1cn(CC2CCCCC2)c2ccccc12)C(C)(C)C (centres unmarked) [MDMB-CHMICA] | 0.55 |  | 107 % JWH-018 |  | 0.78 | 3.07 nM | 3200 nM | effect on Gmax of hERG (in words) (hERG (KV11.1)): clear inhibiting Gmax effects on hERG |
| CCCCCCn1nc(C(=O)NC(C(N)=O)C(C)(C)C)c2ccccc21 (centres unmarked) [ADB-HEXINACA] | 0.037 |  | 117 % JWH-018 |  |  | 39.4 nM | 15800 nM | remaining IKr (hERG Gmax) (hERG (KV11.1); [5]): 63%; IC50 (KV7.1/KCNE1): 1990 nM; KV7.1/KCNE1 channel Efficacy (max reduction in Gmax) Gmin (KV7.1/KCNE1; best fit): 0.41; remaining IKs (KV7.1/KCNE1 Gmax) (KV7.1/KCNE1; [5]): 52% |
| CC1(C)C(C(=O)c2cn(CCCCCF)c3ccccc23)C1(C)C [XLR-11] | 0.54 |  | 105 % JWH-018 |  | 0.87 | 260 nM | 20400 nM | effect on Gmax of hERG (in words) (hERG (KV11.1)): concentration-dependent inhibitory effects on Gmax |
| CCCCCn1cc(C(=O)c2ccc(C)c3ccccc23)c2ccccc21 [JWH-122] | 0.73 | 9400 nM | 105 % JWH-018 | 8.29 nM | 0.87 |  |  |  |
| O=C(c1cccc2ccccc12)c1nn(CCCCCF)c2ccccc12 [THJ-2201] | 0.73 | 2040 nM | 92.8 % JWH-018 | 45.6 nM |  |  |  | effect on KV7.1/KCNE1 (in words) (KV7.1/KCNE1; APC): well-defined concentration–response relationships for both effects; IC50 (KV7.1/KCNE1; [2]): 4700 nM; KV7.1/KCNE1 channel Efficacy (max reduction in Gmax) Gmin (KV7.1/KCNE1; best fit): 0.59 |
